Our source for the IC50 values is US20230098254A1, “SCUTELLARIAE RADIX COMPOUNDS AND USE THEREOF FOR INHIBITING OXIDATIVE PHOSPHORYLATION PATHWAY OF MITOCHONDRIA” (priority 2020, published 2023).

Structures are written as SMILES. pIC50: −log10 of the molar value.

Common to all, as to type: cell-based
In experiment [1] the test system is CCRF-CEM. Put plainly: Cell viability CellTiter-Glo, CCRF-CEM. To be noted: Homo sapiens, leukemia. How it is done:
(§1) Cell viability was measured by using the Promega CellTiter-Glo kit, the kit reflected cell viability by directly measuring intracellular ATP content. Different cancer cells were cultured in culture medium, and the 50% inhibitory concentration IC50 of the compound SJ2858 was measured by Promega CellTiter-Glo kit. The name source and culture condition of each tumor cell line were as follows:
Cell line CCRF-CEM (ATCC, No. CCL-119) was cultured in RPMI1640 medium containing 10% fetal bovine serum (+P/S);

The test system of experiment [2] is NCI-H1155. Kind of experiment: Cell viability CellTiter-Glo, NCI-H1155. To be noted: Homo sapiens; NCI-H1155, lung cancer. How it is done: as §1
Cell line NCI-H1155 (ATCC, No. CRL-5818) was cultured in serum-free ACL-4 medium (+P/S);

Experiment [3] deals with OCI-AML-4. Put plainly: Cell viability CellTiter-Glo, OCI-AML-4. Particulars: OCI-AML-4, leukemia. How it is done:
as §1
Cell line OCI-AML-4 (DSMZ, No. ACC-729) was cultured in alpha-MEM medium containing 20% fetal bovine serum and 20% volume fraction of 5637 cell line adjusted medium (+P/S);

For the compound `O=c1cc(-c2ccccc2)oc2cc(O)c(O)c(O)c12` [Compound SJ2858, baicalein], the figures for the pIC50 in experiment [1], in experiment [2] and in experiment [3] were 4.83, 4.71 and 4.61, respectively.
